The text below walks through data of patent publication US9284296B2, “Bipyridine sulfonamide derivatives for the treatment of neurodegenerative diseases or conditions” (AUBERGINE PHARMACEUTICALS LLC, priority 2010, dated 2016).

Holding throughout (assay type): cell-based
Test [1] deals with secretion of soluble amyloid precursor protein-α (sAPPα). Kind of test: Stimulation of sAPPα secretion (CHO7w cells stably transfected with human APP, AlphaLISA). The settings on record: for EC50 / Emax: Homo sapiens, CHO-7W, CHO7w cells, 24 h incubation, range stated for the listed compounds together; for Emax: read-out: maximum effect (sAPPα secretion). As for the experimental part: The effect of the compounds on the stimulation of the secretion of soluble amyloid precursor protein-α (sAPPα) was determined by measuring the levels of this protein in cell supernatants after incubating the cells with several concentrations of the tested compound. A CHO7w cell line, stably transfected with human APP, was used. Cells were dispensed in 96-well culture plates (5,000 cells/well) and grown in DMEM supplemented with 2% (v/v) foetal bovine serum, 100 U/ml penicillin, 100 μg/ml streptomycin, 2 mM L-glutamine and 200 μg/ml G418 in the presence of several concentrations of the tested compound which had been previously dissolved in DMSO (1% (v/v) DMSO final concentration). After 24 h of incubation 5 μl of the culture supernatants were withdrawn and their sAPPα. concentration was measured with a commercial kit (AlphaLISA® Amyloid Precursor Protein-α Secreted Research kit, PerkinElmer, Waltham, Mass., USA) following manufacturer's instructions. In the culture plate several wells were included as a control for background sAPPα secretion, in these wells the cells were incubated with 1% (v/v) DMSO. The results obtained for each tested sample were normalized by using the following equation:
[formula] where “S” is the sAPPα concentration of the sample being considered, “B” is the average sAPPα concentration of wells used for background secretion and “M” is the sAPPα concentration of wells yielding the highest value. These normalized values obtained at every compound concentration were finally used to calculate the EC50 of the tested compound fitting them to a 4-parameters isotherm equation as already described. The average EC50s ranges are reported in Table 4 together with the maximum observed effect (and the concentration at which this effect was reached), this latter value was calculated for each compound according to the following equation:
[formula] with “M” and “B” as defined above.
Background: Bead proximity is the source of the signal in Alpha formats.

Test [2] concerns SH-SY5Y human neuroblastoma cells. Kind of test: Protection against hydrogen peroxide-induced cell death. The conditions noted are these: for EC50: Homo sapiens, SH-SY5Y cells, 1 h preincubation, 100 μM hydrogen peroxide, 24 h, LDH readout of live cells. As for the experimental part: The aim of this assay is to determine the neuroprotective effect of the compounds when human neuroblastoma cells are exposed to the oxidative stress induced by hydrogen peroxide, which leads to cell death. Therefore the protective effect of the compounds was measured by monitoring cell survival using a suitable commercial kit (Cytotoxicity Detection Kit, Roche Diagnostics GmbH, Mannheim, Germany) based on the quantification of the lactate dehydrogenase activity obtained from lysates of the remaining live cells with a colorimetric assay yielding absorbance at 492 nm as the final readout.
SH-SY5Y human neuroblastoma cells were seeded into 96-well culture plate at a density of 10,000 cells/well. Cells were preincubated for one hour with different concentrations of the compound at a 1% (v/v) DMSO concentration in an equivolumetric mixture of Minimum Essential Medium (MEM) and Nutrient Mixture HAM F12 supplemented with 10% foetal bovine serum, 100 U/ml penicillin, 100 μg/ml streptomycin, 1 mM each of non-essential aminoacids (commercial preparation from GIBCO, Paisley, UK) and 2 mM L-glutamine. Hydrogen peroxide was then added to reach 100 μM and the incubation was extended for 24 h. Then the medium was removed and live cells, which remained attached to the bottom of the plate, were lysed by incubating them during 5 min with 50 μl of 1% (v/v) Triton X-100 in Krebs-Hepes buffer (10 mM Hepes pH7.3 with 145 mM NaCl, 5.5 mM KCl, 1 mM MgCl2, 2 mM CaCl2 and 1 mM glucose). This lysate was used to measure LDH activity using the commercial kit according to the manufacturer's instructions. In the culture plate several wells were included as a control of cell death, in these wells the cells were preincubated with 1% (v/v) DMSO before hydrogen peroxide addition. Likewise, several wells were included as control for full cell survival, in these wells the addition of H2O2 was omitted. The absorbance of each tested sample was normalized to that of the control wells, so that for every compound concentration the percentage of protective effect was calculated with the following equation:
[formula] where “S” is the absorbance of the sample being considered, “E” is the average absorbance of wells used as control of full cell survival and “B” is the average absorbance of wells used as control of cell death. The values obtained at every compound concentration were finally used to calculate the EC50 (i.e., the concentration causing 50% of protective effect) of the tested compound. For that purpose the data were fitted to a classical 4-parameters isotherm equation using the nonlinear regression function of GraphPad™ Prism 5.0 (GraphPad Software Inc.), such equation is described below:
[formula] where “L” is the lower asymptote of the theoretical sigmoidal curve, “H” is the higher asymptote, “C” is the concentration of compound and “n” is the Hill coefficient.

Test [3] relates to secretion of amyloid peptide β1-40 (Aβ1-40). Kind of test: Inhibition of β-amyloid secretion (CHO7w cells stably transfected with human APP, ELISA). The settings on record: CHO-7W, 24 h incubation, range stated for the listed compounds together. As for the experimental part:
The inhibition caused by the compounds on the secretion of amyloid peptide β1-40 (Aβ1-40) was determined by measuring the levels of this peptide in cell supernatants after incubating the cells with several concentrations of the tested compound. A CHO7w cell line, stably transfected with human amyloid precursor protein (APP), was used. Cells were dispensed in 96-well culture plates (5,000 cells/well) and grown in DMEM supplemented with 2% (v/v) foetal bovine serum, 100 U/ml penicillin, 100 μg/ml streptomycin, 2 mM L-glutamine and 200 μg/ml G418 in the presence of several concentrations of the tested compound which had been previously dissolved in DMSO (1% (v/v) DMSO final concentration). After a 24 h incubation the amount of Aβ1-40 secreted to the medium was measured with an ELISA-based commercial kit (Human Amyloid β-40 ELISA High Sensitivity Kit, Millipore, Billerica, Mass., USA) using absorbance at 450 nm as the final readout. In the culture plate several wells were included as a control for lack of Aβ1-40 secretion, in these wells the cells were incubated in the presence of 16% (v/v) DMSO to inhibit cell growth therefore abolishing Aβ1-40 secretion. Likewise, several wells were also included as a control for full Aβ1-40 secretion, in these wells the cells were grown in the presence of 1% (v/v) DMSO. The absorbance of each tested sample was normalized to that of the control wells, so that for every compound concentration the percentage of inhibition was calculated with the following equation:
[formula] where “S” is the absorbance of the sample being considered, “E” is the average absorbance of wells lacking Aβ1-40 secretion and “B” is the average absorbance of wells with full Aβ1-40 secretion. The inhibition values obtained at every compound concentration were fitted to a 4-parameters isotherm equation, as described above, to calculate the […] (i.e., the concentration causing 50% of inhibition of Ab1-40 secretion).
Background: An ELISA detects its analyte on a solid surface through an enzyme-linked reagent.

The structures appear in SMILES notation.

A word on the EC50: it is the concentration at which the effect is half-maximal. Consider `COc1cc(CNS(=O)(=O)c2ccc(C(C)=O)cc2)nc(-c2ccccn2)c1` [Compound 9], for which, in test [1], the EC50 lay within 500 to 11000 nM and the Emax was in the range of 250 to 500%. A half-maximal effect in test [2] (EC50) was put at 6100 nM.

Consider `CCN(CC)CCOc1cc(CNS(=O)(=O)c2ccc(C)s2)nc(-c2ccccn2)c1` [Compound 32, 5-Methyl-thiophene-2-sulfonic acid [4-(2-diethylamino-ethoxy)-[2,2′]bipyridinyl-6-ylmethyl]-amide], for which, in test [1], the concentration for a half-maximal effect (EC50) was in the range of 500 to 11000 nM and the Emax is 250 to 500%. In addition, in test [2], the half-maximal effective concentration (EC50) was 550 nM.

Usually IC50 stands for the midpoint of a concentration-inhibition curve. The low end stands for higher potency, the high end for lower potency. Molecule `COc1cc(CNS(=O)(=O)c2cnc(Cl)s2)nc(-c2ccccn2)c1` [Compound 106] returned a half-maximal effective concentration (EC50) in test [2] of 630 nM. For the same molecule, the IC50 in test [3] lay within 300 to 42000 nM.

As to `COc1cc(CNS(=O)(=O)c2ccc(Br)s2)nc(-c2ccccn2)c1` [Compound 18, 5-Bromo-thiophene-2-sulfonic acid (4-methoxy-[2,2′]bipyridinyl-6-ylmethyl)-amide], the EC50 in test [1] was 500 to 11000 nM; in test [2], 1880 nM. Also, the Emax in test [1] lay within 250 to 500%.

`COc1cc(CNS(=O)(=O)c2cccc(Cl)c2F)nc(-c2ccccn2)c1` [Compound 56]: the EC50 in test [2] worked out at 1060 nM. The molecule further came in with an IC50 in test [3] of 300 to 42000 nM.

As to `COc1cc(CNS(=O)(=O)c2cccs2)nc(-c2ccccn2)c1` [Compound 8], in test [1], the EC50 lay within 500 to 11000 nM and the Emax was 250 to 500%. Also, the “rank of concentration at which maximum effect was reached (sAPPα secretion)” value in test [1] (comparison among tested compounds) is “maximum effect at the lowest concentration”. In test [2], this molecule yielded an EC50 of 90 nM. In test [2] (comparison within Table 2), the “rank of activity among compounds assayed (protection against hydrogen peroxide)” value is “most active compound”.

As to `COc1cc(CNS(=O)(=O)c2ccccc2)nc(-c2ccccn2)c1` [Compound 6, N-(4-Methoxy-[2,2′]bipyridinyl-6-ylmethyl)-benzenesulfonamide], in test [1], the EC50 lay within 500 to 11000 nM and the Emax lay in the range of 250 to 500%. This molecule gave a concentration giving a half-maximal response (EC50) in test [2] of 1580 nM.

Turning to `CCN(CC)CCOc1cc(CNS(=O)(=O)c2cccs2)nc(-c2ccccn2)c1` [Compound 28, Thiophene-2-sulfonic acid [4-(2-diethylamino-ethoxy)-[2,2′]bipyridinyl-6-ylmethyl]-amide], in test [1], the EC50 is 500 to 11000 nM and the Emax fell in the range of 250 to 500%. In addition, a half-maximal effect in test [2] (EC50) was put at 1160 nM.

Consider `COc1cc(CNS(=O)(=O)c2ccc(C)s2)nc(-c2ccccn2)c1` [Compound 24, 5-Methyl-thiophene-2-sulfonic acid (4-methoxy-[2,2′]bipyridinyl-6-ylmethyl)-amide], for which the EC50 in test [2] was 3460 nM. This molecule also had a half-inhibitory concentration (IC50) in test [3] of 300 to 42000 nM.

`COc1cc(CN(Cc2cc(OC)cc(-c3ccccn3)n2)S(=O)(=O)c2ccc(Cl)s2)nc(-c2ccccn2)c1` [Compound 27] registered an EC50 in test [2] of 3520 nM. This molecule also gave an IC50 in test [3] of 300 to 42000 nM.

For the molecule `COc1cc(CNS(=O)(=O)c2ccc(C(F)(F)F)cc2)nc(-c2ccccn2)c1` [Compound 4, N-(4-Methoxy-[2,2′]bipyridinyl-6-ylmethyl)-4-trifluoromethyl-benzenesulfonamide], the EC50 in test [2] was 2600 nM. Besides, in test [3], the concentration for half-maximal inhibition (IC50) is 300 to 42000 nM.

The molecule `COc1cc(CNS(=O)(=O)CC(F)(F)F)nc(-c2ccccn2)c1` [Compound 82] gave an EC50 in test [2] of 500 nM. Also, the half-maximal inhibitory concentration (IC50) in test [3] is 300 to 42000 nM.

On to `COc1cc(CNS(=O)(=O)c2ccc(F)cc2)nc(-c2ccccn2)c1` [Compound 11, 4-Fluoro-N-(4-methoxy-[2,2′]bipyridinyl-6-ylmethyl)-benzenesulfonamide], for which, in test [1], the EC50 lay in the range of 500 to 11000 nM and the Emax was in the range of 250 to 500%. In addition, the EC50 in test [2] turned out to be 1300 nM.

Turning to `COc1cc(CN(S(=O)(=O)c2ccc(Cl)s2)S(=O)(=O)c2ccc(Cl)s2)nc(-c2ccccn2)c1` [Compound 26], in test [2], the EC50 was 4600 nM. In test [3], this molecule showed an IC50 of 300 to 42000 nM.

For `COc1cc(CNS(=O)(=O)c2sc(Cl)nc2Cl)nc(-c2ccccn2)c1` [Compound 101], in test [2], it took 230 nM to reach a half-maximal effect (EC50). The same molecule returned an IC50 in test [3] of 300 to 42000 nM.

Consider `COc1cc(CNS(=O)(=O)c2ccc(C#N)cc2)nc(-c2ccccn2)c1` [Compound 13, 4-Cyano-N-(4-methoxy-[2,2′]bipyridinyl-6-ylmethyl)-benzenesulfonamide], for which, in test [1], the EC50 was 500 to 11000 nM and the Emax was 250 to 500%. Also, in test [2], the EC50 came to 1500 nM.

Molecule `COc1cc(CNS(=O)(=O)c2cc(Cl)ccc2Cl)nc(-c2ccccn2)c1` [Compound 100] returned a concentration giving a half-maximal response (EC50) in test [2] of 1040 nM. In addition, the IC50 in test [3] was in the range of 300 to 42000 nM.

As for `COc1cc(CNS(=O)(=O)c2ccc(Br)cc2)nc(-c2ccccn2)c1` [Compound 16, 4-Bromo-N-(4-methoxy-[2,2′]bipyridinyl-6-ylmethyl)-benzenesulfonamide], in test [1], the half-maximal effective concentration (EC50) fell in the range of 500 to 11000 nM and the Emax lay within 250 to 500%. The molecule also registered an EC50 in test [2] of 3200 nM.

Molecule `COc1cc(CNS(=O)(=O)c2ccc(-c3cnco3)s2)nc(-c2ccccn2)c1` [Compound 55] registered a concentration giving a half-maximal response (EC50) in test [2] of 1300 nM. Moreover, the concentration for half-maximal inhibition (IC50) in test [3] lay in the range of 300 to 42000 nM.

In the case of `COc1cc(CNS(=O)(=O)c2ccc(F)c(C#N)c2)nc(-c2ccccn2)c1` [Compound 14, 3-Cyano-4-fluoro-N-(4-methoxy-[2,2′]bipyridinyl-6-ylmethyl)-benzenesulfonamide], in test [1], the EC50 was in the range of 500 to 11000 nM and the Emax fell in the range of 250 to 500%. The same molecule yielded an EC50 in test [2] of 1600 nM.

As to `COc1cc(CNS(=O)(=O)c2cccc(F)c2)nc(-c2ccccn2)c1` [Compound 12, 3-Fluoro-N-(4-methoxy-[2,2′]bipyridinyl-6-ylmethyl)-benzenesulfonamide], in test [1], the EC50 was in the range of 500 to 11000 nM and the Emax was in the range of 250 to 500%. The molecule further displayed an EC50 in test [2] of 1060 nM.
